Patent publication US9273058B2 (BRISTOL-MYERS SQUIBB COMPANY, priority 2013, dated 2016)
Like-named read-outs stand apart in the source and are kept apart here.

Columns and labels:
[1] = biological target: CK1δ (Homo sapiens, UniProt P48730); assay: CK1δ kinase assay (Caliper LabChip electrophoretic separation of fluoresceinated peptide substrate and product); type: biochemical; conditions: 200 pM CK1δ, 50 μM ATP, 1.5 μM peptide, 22 hours at room temperature
Summary of the method: (§1)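 Compounds, taken from 10 mM DMSO stocks, are titrated at eleven concentrations. Kinase reactions proceed for 22 hours at room temperature and are quenched with EDTA. Substrate and product are resolved electrophoretically, and IC50 values are fitted by non-linear regression.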

[2] = biological target: CK1ε (Homo sapiens, UniProt P49674); assay: CK1ε kinase assay (Caliper LabChip electrophoretic separation of fluoresceinated peptide substrate and product); type: biochemical; conditions: 200 pM CK1ε, 50 μM ATP, 1.5 μM peptide, 22 hours at room temperature
Chain of CK1ε (P49674 whole entry): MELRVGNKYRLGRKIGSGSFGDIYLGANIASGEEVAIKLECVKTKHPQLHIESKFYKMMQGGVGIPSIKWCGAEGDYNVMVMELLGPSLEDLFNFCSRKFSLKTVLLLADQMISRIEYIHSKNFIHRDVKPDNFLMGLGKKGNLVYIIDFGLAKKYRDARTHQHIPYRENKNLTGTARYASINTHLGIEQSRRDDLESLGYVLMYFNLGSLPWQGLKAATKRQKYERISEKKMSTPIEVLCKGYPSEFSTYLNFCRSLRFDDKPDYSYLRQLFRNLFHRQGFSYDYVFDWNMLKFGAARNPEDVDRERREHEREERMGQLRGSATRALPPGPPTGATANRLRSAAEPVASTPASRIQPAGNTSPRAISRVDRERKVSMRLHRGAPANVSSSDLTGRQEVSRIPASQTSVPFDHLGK
Summary of the method: as §1

Chain of CK1δ (P48730 whole entry): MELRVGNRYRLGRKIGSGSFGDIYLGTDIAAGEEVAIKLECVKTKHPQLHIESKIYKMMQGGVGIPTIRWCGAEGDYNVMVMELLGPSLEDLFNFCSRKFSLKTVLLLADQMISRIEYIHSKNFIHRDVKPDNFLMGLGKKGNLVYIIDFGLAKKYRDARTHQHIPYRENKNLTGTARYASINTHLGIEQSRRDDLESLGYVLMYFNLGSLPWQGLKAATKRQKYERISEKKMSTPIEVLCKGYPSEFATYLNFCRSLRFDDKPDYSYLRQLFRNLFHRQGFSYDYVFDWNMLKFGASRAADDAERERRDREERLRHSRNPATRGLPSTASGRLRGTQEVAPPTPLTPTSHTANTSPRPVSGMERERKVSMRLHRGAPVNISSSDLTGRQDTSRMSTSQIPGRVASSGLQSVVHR

Compound: CC(C)(C)NC(=O)N1Cc2c(C(N)=O)c(-c3cccc(F)c3)nn2C(CF)C1 (single isomer, unassigned) [Compound A106, N^5-(tert-Butyl)-7-(fluoromethyl)-2-(3-fluorophenyl)-6,7-dihydropyrazolo[1,5-a]pyrazine-3,5(4H)-dicarboxamide]
- IC50 ([1]; read-out: CK1δ IC50 range): 100 to 2000 nM
- IC50 ([2]; read-out: CK1ε IC50 range): 100 to 2000 nM

Compound: CC(C)(C)NC(=O)N1Cc2c(C(N)=O)c(-c3ccc(F)c(Cl)c3)nn2[C@H]2COC[C@H]21 [Compound 352, (5aS,8aR)—N^5-(tert-Butyl)-2-(3-chloro-4-fluorophenyl)-5a,6,8,8a-tetrahydrofuro[3,4-e]pyrazolo[1,5-a]pyrazine-3,5(4H)-dicarboxamide]
- IC50 ([1]; read-out: CK1δ): 18.1 nM
- IC50 ([1]; read-out: CK1δ IC50 range): 10 to 100 nM
- IC50 ([2]; read-out: CK1ε): 19.8 nM
- IC50 ([2]; read-out: CK1ε IC50 range): 10 to 100 nM

Compound: CC(C)(NC(=O)N1CCn2nc(-c3ccc(F)c(Cl)c3)c(C(N)=O)c2C1)C(F)F [Compound 185, 2-(3-Chloro-4-fluorophenyl)-N^5-(1,1-difluoro-2-methylpropan-2-yl)-6,7-dihydropyrazolo[1,5-a]pyrazine-3,5(4H)-dicarboxamide]
- IC50 ([1]; read-out: CK1δ IC50 range): 0.01 to 10 nM
- IC50 ([2]; read-out: CK1ε IC50 range): 0.01 to 10 nM

Compound: CC(C)(C)NC(=O)N1Cc2c(C(N)=O)c(-c3ccc(F)c(Cl)c3)nn2C(C(C)(C)C)C1 (single isomer, unassigned) [Compound A117, N^5-7-Di-tert-butyl-2-(3-chloro-4-fluorophenyl)-6,7-dihydropyrazolo[1,5-a]pyrazine-3,5(4H)-dicarboxamide]
- IC50 ([1]; read-out: CK1δ IC50 range): 100 to 2000 nM
- IC50 ([2]; read-out: CK1ε IC50 range): 10 to 100 nM

Compound: CC1Cn2nc(-c3ccc(F)c(Cl)c3)c(C(N)=O)c2CN1C(=O)NC1CC(F)(F)C1 (single isomer, unassigned) [Compound 342, 2-(3-Chloro-4-fluorophenyl)-N^5-(3,3-difluorocyclobutyl)-6-methyl-6,7-dihydropyrazolo[1,5-a]pyrazine-3,5(4H)-dicarboxamide]
- IC50 ([1]; read-out: CK1δ IC50 range): 10 to 100 nM
- IC50 ([2]; read-out: CK1ε IC50 range): 10 to 100 nM

Compound: NC(=O)c1c(-c2cccc(F)c2)nn2c1CN(C(=O)NC1CCC(F)(F)CC1)CC2 [Compound 12, N^5-(4,4-Difluorocyclohexyl)-2-(3-fluorophenyl)-6,7-dihydropyrazolo[1,5-a]pyrazine-3,5(4H)-dicarboxamide]
- IC50 ([1]; read-out: CK1δ IC50 range): 10 to 100 nM
- IC50 ([2]; read-out: CK1ε IC50 range): 100 to 2000 nM

Compound: CC(C)(NC(=O)N1CCn2nc(-c3ccc(F)c(Cl)c3)c(C(N)=O)c2C1)C(N)=O [Compound 219, N^5-(1-Amino-2-methyl-1-oxopropan-2-yl)-2-(3-chloro-4-fluorophenyl)-6,7-dihydropyrazolo[1,5-a] pyrazine-3,5(4H)-dicarboxamide]
- IC50 ([1]; read-out: CK1δ IC50 range): 10 to 100 nM
- IC50 ([2]; read-out: CK1ε IC50 range): 10 to 100 nM

Compound: NC(=O)c1c(-c2cccc(Cl)c2)nn2c1CN(C(=O)Nc1ccc(C(F)(F)F)cc1)CC2 [Compound 168, 2-(3-Chlorophenyl)-N^5-(4-(trifluoromethyl)phenyl)-6,7-dihydropyrazolo[1,5-a]pyrazine-3,5(4H)-dicarboxamide]
- IC50 ([1]; read-out: CK1δ IC50 range): 0.01 to 10 nM
- IC50 ([2]; read-out: CK1ε IC50 range): 0.01 to 10 nM

Compound: CC(C)(C)NC(=O)N1CCn2nc(-c3cc(F)cc(C(F)(F)F)c3)c(C(N)=O)c2C1 [Compound 155, N^5-(tert-Butyl)-2-(3-fluoro-5-(trifluoromethyl)phenyl)-6,7-dihydropyrazolo[1,5-a] pyrazine-3,5(4H)-dicarboxamide]
- IC50 ([1]; read-out: CK1δ IC50 range): 100 to 2000 nM
- IC50 ([2]; read-out: CK1ε IC50 range): 100 to 2000 nM

Compound: CC(C)(C)NC(=O)N1CCn2nc(-c3cccc(N)c3)c(C(N)=O)c2C1 [Compound 120, 2-(3-Aminophenyl)-N^5-(tert-butyl)-6,7-dihydropyrazolo [1,5-a]pyrazine-3,5(4H)-dicarboxamide]
- IC50 ([1]; read-out: CK1δ IC50 range): 10 to 100 nM
- IC50 ([2]; read-out: CK1ε IC50 range): 100 to 2000 nM

Compound: NC(=O)c1c(-c2cccc(F)c2)nn2c1CN(C(=O)Nc1cccc3ccccc13)CC2 [Compound 52, 2-(3-Fluorophenyl)-N^5-(naphthalen-1-yl)-6,7-dihydropyrazolo[1,5-a]pyrazine-3,5(4H)-dicarboxamide]
- IC50 ([1]; read-out: CK1δ IC50 range): 10 to 100 nM
- IC50 ([2]; read-out: CK1ε IC50 range): 10 to 100 nM
